{
  "source": "patent US20050113371A1",
  "about": "“Antifungal agent for topical use” (priority 2002, published 2005)",
  "key": {"[1]": {"system": "Trichophyton mentagrophytes", "assay": "Antifungal activity on Sabouraud agar medium, MIC and FIC index (Test Examples 1 and 2)", "type": "cell-based", "details": "cultured 7 days", "protocol": "(§1) Amorolfine hydrochloride and each specimen (hereinafter referred to as “medicine”) at a mass ratio of 1:1 were dissolved in dimethyl sulfoxide (DMSO). Two-fold dilution series were prepared with DMSO. In the determination of the antifungal activity, the medicine and the medium were mixed together at a ratio of 1:99.\n(§2) Sabouraud agar medium (Eiken) was used as a susceptibility determination medium. A microbe suspension containing 10^6 spores/mL of Candida albicans or about 10^6 conidia/mL of ringworm fungus was prepared. 5 μl of the suspension was inoculated on the Sabouraud agar medium containing the medicine with a micro-planter (a product of Sakuma Seisakusho). Candida albicans was cultured for 2 days and the tinea was cultured for 7 days. […]"}, "Trichophyton rubrum": {"system": "Trichophyton rubrum", "assay": "Antifungal activity on Sabouraud agar medium, MIC and FIC index (Test Examples 1 and 2)", "type": "cell-based", "details": "cultured 7 days", "protocol": "as §1, §2"}, "Candida albicans [2]": {"system": "Candida albicans", "assay": "Antifungal activity on Sabouraud agar medium, MIC and FIC index (Test Examples 1 and 2)", "type": "cell-based", "details": "cultured 2 days", "protocol": "as §1\n(§3) Sabouraud agar medium (Eiken) was used as a susceptibility determination medium. A microbe suspension containing 10^6 spores/mL of Candida albicans or about 10^6 conidia/mL of ringworm fungus was prepared. 5 μl of the suspension was inoculated on the Sabouraud agar medium containing the medicine with a micro-planter (a product of Sakuma Seisakusho). Candida albicans was cultured for 2 days and the tinea was cultured for 7 days.\nThe effect obtained by the combination was judged on the basis of the following standards (FIC index): • >2: antagonism • 2>and 1<: additive action • 1>: potentiation\n(1) Amorolfine hydrochloride and each specimen (hereinafter referred to as “medicine”) at a mass ratio of 100:1 to 1:100 were dissolved in dimethyl sulfoxide (DMSO). Two-fold dilution series were prepared with DMSO. In the determination of the antifungal activity, the medicine and the medium were mixed together at a ratio of 1:99.\n(2) Amorolfine hydrochloride and each specimen (hereinafter referred to as “medicine”) at a mass ratio of 1:3 to 3:1 were dissolved in dimethyl sulfoxide (DMSO). Two-fold dilution series were prepared with DMSO. In the determination of the antifungal activity, the medicine and the medium were mixed together at a ratio of 1:99.\nas §3, with “conidia/mL of each of two kinds of ringworm fungus” for “conidia/mL of ringworm fungus”, “agar medium with a” for “agar medium containing the medicine with a”, “and the Tinea fungus was cultured” for “and the tinea was cultured”"}, "[3]": {"system": "Trichophyton mentagrophytes TIMM 1189", "assay": "Tinea infection model of guinea pigs, culture test (Test Example 3)", "type": "in vivo", "details": "0.75 mass % in polyethylene glycol 400 (combination 1:2), 0.1 mL once a day for 5 days from 3 days after inoculation; culture on 5th day after last application; 10 loci", "protocol": "Amorolfine hydrochloride and each specimen (hereinafter referred to as “medicine”) at a mass ratio of 1:2 were dissolved in polyethylene glycol 400 to obtain a final concentration of 0.75% mass ratio. Each of amorolfine hydrochloride and the medicines was separately dissolved in polyethylene glycol 400 to obtain solutions having the final concentration of 0.75 mass %.\nMale Hartley guinea pigs (Japan SLC Co., Ltd.; 6 weeks) were used. In the course of the test, they were kept separately from one another in an isolator (Negative rack, CLEA JAPAN, Inc.). They could freely have a solid food (G standard, Nihon Nosan Kogyo KK) and water.\nTrichophyton mentagrophytes TIMM 1189 was cultured on slant Sabouraud glucose agar medium at 27° C. for 14 days. Then, sterilized saline containing 0.05% of Tween 80 was added thereto to obtain conidia. The resultant suspension was filtered through a cell strainer (FALCON Co., Ltd.) to remove large mycelian masses. The number of conidia was counted with hemocytometer. The conidia were diluted to 4×10^7/mL with sterilized saline containing 0.05% of Tween 80 to obtain the conidial suspension for inoculation.\nThe back of each guinea pig was shaved. Then, a circular inoculation part having a diameter of 2 cm was positioned on both sides of the spinal column. A gummed tape was applied thereto and then peeled. These steps was repeated three times, whereby the hair was pulled out of the skin in both parts and, at the same time, the top of the corneous layer of the skin was peeled off. The remaining hair was completely removed with tweezers. […]\nWhen at least one of the 10 small pieces taken from one inoculated locus of the skin was the positive after the culture, the inoculated locus was judged to be positive. The ratio of positive loci after culture was calculated from the number of the cultured positive pieces in the total 10 inoculated loci in each experiment group.\nThe number of the cultured positive small pieces in the inoculated portion was scored as will be described below to determine the infection. […]"}, "[4]": {"system": "Trichophyton mentagrophytes", "details": "at a low concentration; cited from earlier work"}, "Candida albicans [5]": {"system": "Candida albicans", "details": "cited from earlier work"}, "[6]": {"details": "mice, cited from earlier work"}, "[7]": {"details": "rats, cited from earlier work"}, "[8]": {"details": "male and female rabbits, percutaneous; cited from earlier work"}, "[9]": {"details": "in vivo; cited from earlier work"}, "[10]": {"details": "rabbit, in vivo; cited from earlier work"}, "[11]": {"details": "Test Example 1, amorolfine hydrochloride + medicine at mass ratio 1:1"}},
  "note": "Where a name gives a salt, the structure may show the parent alone. Read-outs that look alike come from different tables or passages of the source.",
  "data": [
    {"molecule": "CN(C/C=C/C#CC(C)(C)C)Cc1cccc2ccccc12", "note": "[terbinafine hydrochloride, (E)-N-(6,6-dimethyl-2-hepten-4-ynyl)-N-methyl-1-naphthalenemethylamine hydrochloride]", "values": [
      {"measurement": "FIC index obtained by the combination of amorolfine hydrochloride with another medicine", "setting": "[1]; [11]", "result": 0.52},
      {"measurement": "MIC", "setting": "[1]; Trichophyton mentagrophytes, 168 h, Test Example 2, geometric mean MIC of two strains, read-out: Minimum inhibitory concentration (MIC)", "result": 0.011, "unit": "µg/mL"},
      {"measurement": "FIC index obtained by the combination of amorolfine hydrochloride with another medicine", "setting": "Trichophyton rubrum; [11]", "result": 0.75},
      {"measurement": "MIC", "setting": "Trichophyton rubrum; Trichophyton rubrum, 168 h, Test Example 2, geometric mean MIC of two strains, read-out: Minimum inhibitory concentration (MIC)", "result": 0.004, "unit": "µg/mL"},
      {"measurement": "MIC", "setting": "Candida albicans [2]; Candida albicans, 48 h, Test Example 2, geometric mean MIC of two strains, read-out: Minimum inhibitory concentration (MIC)", "result": "> 8", "unit": "µg/mL"},
      {"measurement": "FIC index obtained by the combination of amorolfine hydrochloride with another medicine", "setting": "Candida albicans [2]; [11]", "result": 0.27},
      {"measurement": "Minimum inhibitory concentration (MIC)", "setting": "Candida albicans [2]; Test Example 2, geometric mean MIC of two strains, listed as T, hydrochloride", "result": ">8.0", "unit": "µg/mL"},
      {"measurement": "rate of positive loci after culture", "setting": "[3]", "result": 100, "unit": "%"},
      {"measurement": "effect on germinated conidium of Trichophyton mentagrophytes", "setting": "[4]", "result": "fungicidal effect"},
      {"measurement": "concentration that exhibits a fungistatic effect on the propagation of the yeast form", "setting": "Candida albicans [5]", "result": "at least 1 μg/mL"},
      {"measurement": "concentration that inhibits the conversion from yeast form to mycelial form", "setting": "Candida albicans [5]", "result": "at least 0.098 μg/mL"},
      {"measurement": "LD50", "setting": "[6]; intravenous injection, female", "result": 377, "unit": "mg/kg"},
      {"measurement": "LD50", "setting": "[6]; intravenous injection, male", "result": 410, "unit": "mg/kg"},
      {"measurement": "LD50", "setting": "[6]; oral, female", "result": "> 4000", "unit": "mg/kg"},
      {"measurement": "LD50", "setting": "[6]; oral, male", "result": 3570, "unit": "mg/kg"},
      {"measurement": "LD50", "setting": "[6]; subcutaneous, male and female", "result": "> 2000", "unit": "mg/kg"},
      {"measurement": "LD50", "setting": "[7]; intravenous injection, female", "result": 206, "unit": "mg/kg"},
      {"measurement": "LD50", "setting": "[7]; intravenous injection, male", "result": 220, "unit": "mg/kg"},
      {"measurement": "LD50", "setting": "[7]; oral, male and female", "result": "> 4000", "unit": "mg/kg"},
      {"measurement": "LD50", "setting": "[7]; percutaneous, male and female", "result": "> 2000", "unit": "mg/kg"},
      {"measurement": "LD50", "setting": "[7]; subcutaneous, male and female", "result": "> 2000", "unit": "mg/kg"},
      {"measurement": "LD50", "setting": "[8]", "result": "> 1500", "unit": "mg/kg"},
      {"measurement": "increase in the body weight of dams", "setting": "[9]", "result": "suppression on the increase in the body weight of dams"},
      {"measurement": "influence on the reproduction and the growth of the embryos", "setting": "[9]", "result": "no influence was recognized"},
      {"measurement": "localized irritation", "setting": "[10]", "result": "a weak irritation or a light cumulative irritation"}
    ]}
  ]
}
